Data on 31 compounds can be found in US20230123334A1, “AMINO LIPID COMPOUND, PREPARATION METHOD THEREFOR, AND APPLICATION THEREOF” (SHENZHEN SHENXIN BIOTECHNOLOGY CO., LTD., priority 2020, published 2023).

Each structure is given as a SMILES string.

Assay [1] relates to HEK293 cells. The assay can be described thus: Preliminary screening as DNA vectors, GFP transfection of HEK293 cells. The format is cell-based. Conditions: HEK293 cells; lipid/DOPE liposome with 75 ng plasmid DNA (psin-EGFP-IRES-Puro); number of cells expressing GFP divided by total number of nuclei (Hoechst). The essentials: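 Lipid + DOPE liposomes (NaOAc, pH 5.6) complexed w/ 75 ng psin-EGFP-IRES-Puro, 30 min RT; added to 3-5×10^4 HEK293/well, 37° C. Hoechst 0.2 μg/mL at 20-24 h, imaged after further 20-24 h. Efficiency = GFP+ cells / total nuclei.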

Assay [2] concerns HEK293 cells. Kind of assay: Preliminary screening as mRNA vectors, EGFP mRNA transfection of HEK293 cells. It is filed as cell-based. Conditions: HEK293 cells, 96-well plates, EGFP mRNA 50 ng per well; percentage of GFP fluorescent cells relative to total number of cells (Hoechst). In short, it runs like this: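 Each well of HEK293 cells received 50 ng of EGFP mRNA. Efficiency was expressed as percent GFP-expressing cells over Hoechst-defined total cell number.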

Regarding `CCCCCCCCCCCCCCCCNc1nc(NCCCCCCCCCCCCCCCC)nc(NCCCN2CCN(C)CC2)n1` [Compound N16N16D9], the “Absolute DNA transfection efficiency in HEK293 cells” value (“Absolute DNA transfection efficiency” below) in the assay on HEK293 cells [1] is 1.9%. The “Absolute mRNA transfection efficiency in HEK293 cells” value (“Absolute mRNA transfection efficiency” below) in the assay on HEK293 cells [2] is given as 0.0%.

On to `CCCCCCCCCCCCCCCCNc1nc(NCCCCCCCCCCCCCCCC)nc(NCC2CCN(C)CC2)n1` [Compound N16N16D10], for which the “Absolute DNA transfection efficiency” value in the assay with HEK293 cells [1] stood at 0.0%. Further, the “Absolute mRNA transfection efficiency” value in the assay with HEK293 cells [2] is on record as 0.0%.

On to `CCCCCCCCCCCCCCCCCCNc1nc(NCCCCCCCCCCCCCCCC)nc(NCCN(C)C)n1` [Compound N16N18D1], for which the “Absolute DNA transfection efficiency” value in the assay on HEK293 cells [1] was found to be 1.2%. Besides, the “Absolute mRNA transfection efficiency” value with HEK293 cells [2] came to 0.0%.

On to `CCCCCCCCCCCCCCCCCCNc1nc(NCCCCCCCCCCCCCCCC)nc(NCCN2CCOCC2)n1` [Compound N16N18D2], for which the “Absolute DNA transfection efficiency” value in the assay with HEK293 cells [1] was 1.2%. Further, the “Absolute mRNA transfection efficiency” value in the assay on HEK293 cells [2] was found to be 0.0%.

Turning to `CCCCCCCCCCCCCCCCCCNc1nc(NCCCCCCCCCCCCCCCC)nc(NCCN2CCCC2)n1` [Compound N16N18D3], in the assay on HEK293 cells [1], the “Absolute DNA transfection efficiency” value turned out to be 0.4%. For the same compound, the “Absolute mRNA transfection efficiency” value in the assay with HEK293 cells [2] worked out at 20.8%.

On to `CCCCCCCCCCCCCCCCCCNc1nc(NCCCCCCCCCCCCCCCC)nc(NCCN2CCCCC2)n1` [Compound N16N18D4], for which the “Absolute DNA transfection efficiency” value in the assay with HEK293 cells [1] was found to be 0.6%. The “Absolute mRNA transfection efficiency” value in the assay on HEK293 cells [2] is given as 1.8%.

With `CCCCCCCCCCCCCCCCCCNc1nc(NCCCCCCCCCCCCCCCC)nc(NCCN2CCN(C)CC2)n1` [Compound N16N18D5], in the assay on HEK293 cells [1], the “Absolute DNA transfection efficiency” value came to 1.1%. Besides, the “Absolute mRNA transfection efficiency” value with HEK293 cells [2] came out at 0.0%.

Regarding `CCCCCCCCCCCCCCCCCCNc1nc(NCCCCCCCCCCCCCCCC)nc(NCCCN(C)C)n1` [Compound N16N18D6], in the assay with HEK293 cells [1], the “Absolute DNA transfection efficiency” value is recorded as 0.0%. In the assay with HEK293 cells [2], the “Absolute mRNA transfection efficiency” value was 4.4%.

As for `CCCCCCCCCCCCCCCCCCNc1nc(NCCCCCCCCCCCCCCCC)nc(NCCN(CC)CC)n1` [Compound N16N18D7], the “Absolute DNA transfection efficiency” value in the assay on HEK293 cells [1] stood at 0.0%. For the same compound, in the assay with HEK293 cells [2], the “Absolute mRNA transfection efficiency” value was 0.0%.

On to `CCCCCCCCCCCCCCCCCCNc1nc(NCCCCCCCCCCCCCCCC)nc(NCCCN2CCOCC2)n1` [Compound N16N18D8], for which the “Absolute DNA transfection efficiency” value in the assay with HEK293 cells [1] came to 0.0%. Also, in the assay on HEK293 cells [2], the “Absolute mRNA transfection efficiency” value is reported as 1.0%.

Regarding `CCCCCCCCCCCCCCCCCCNc1nc(NCCCCCCCCCCCCCCCC)nc(NCCCN2CCN(C)CC2)n1` [Compound N16N18D9], the “Absolute DNA transfection efficiency” value in the assay on HEK293 cells [1] was found to be 0.0%. The “Absolute mRNA transfection efficiency” value in the assay with HEK293 cells [2] was 0.0%.

Consider `CCCCCCCCCCCCCCCCCCNc1nc(NCCCCCCCCCCCCCCCC)nc(NCC2CCN(C)CC2)n1` [Compound N16N18D10], for which, in the assay with HEK293 cells [1], the “Absolute DNA transfection efficiency” value is on record as 3.0%. The “Absolute mRNA transfection efficiency” value in the assay with HEK293 cells [2] was determined as 1.8%.

With `CCCCCCCCCCCCCCCCCCNc1nc(NCCCCCCCCCCCCCCCCCC)nc(NCCN(C)C)n1` [Compound N18N18D1], the “Absolute DNA transfection efficiency” value in the assay with HEK293 cells [1] is recorded as 1.9%. Besides, the “Absolute mRNA transfection efficiency” value in the assay on HEK293 cells [2] came out at 2.2%.

Take `CCCCCCCCCCCCCCCCCCNc1nc(NCCCCCCCCCCCCCCCCCC)nc(NCCN2CCOCC2)n1` [Compound N18N18D2]: in the assay with HEK293 cells [1], the “Absolute DNA transfection efficiency” value amounted to 0.0%. Further, in the assay with HEK293 cells [2], the “Absolute mRNA transfection efficiency” value is recorded as 0.0%.

Consider `CCCCCCCCCCCCCCCCCCNc1nc(NCCCCCCCCCCCCCCCCCC)nc(NCCN2CCCC2)n1` [Compound N18N18D3], for which, in the assay with HEK293 cells [1], the “Absolute DNA transfection efficiency” value worked out at 2.0%. In addition, the “Absolute mRNA transfection efficiency” value in the assay on HEK293 cells [2] is on record as 40.0%.

For the compound `CCCCCCCCCCCCCCCCCCNc1nc(NCCCCCCCCCCCCCCCCCC)nc(NCCN2CCCCC2)n1` [Compound N18N18D4], the “Absolute DNA transfection efficiency” value with HEK293 cells [1] is 0.9%. Moreover, in the assay with HEK293 cells [2], the “Absolute mRNA transfection efficiency” value turned out to be 0.0%.

On to `CCCCCCCCCCCCCCCCCCNc1nc(NCCCCCCCCCCCCCCCCCC)nc(NCCN2CCN(C)CC2)n1` [Compound N18N18D5], for which, in the assay on HEK293 cells [1], the “Absolute DNA transfection efficiency” value was found to be 1.1%. Moreover, the “Absolute mRNA transfection efficiency” value in the assay on HEK293 cells [2] was found to be 0.0%.

As for `CCCCCCCCCCCCCCCCCCNc1nc(NCCCCCCCCCCCCCCCCCC)nc(NCCCN(C)C)n1` [Compound N18N18D6], the “Absolute DNA transfection efficiency” value with HEK293 cells [1] is recorded as 0.3%. Further, the “Absolute mRNA transfection efficiency” value in the assay on HEK293 cells [2] came to 4.4%.

As to `CCCCCCCCCCCCCCCCCCNc1nc(NCCCCCCCCCCCCCCCCCC)nc(NCCN(CC)CC)n1` [Compound N18N18D7], in the assay on HEK293 cells [1], the “Absolute DNA transfection efficiency” value was determined as 0.3%. Also, in the assay with HEK293 cells [2], the “Absolute mRNA transfection efficiency” value worked out at 0.0%.

On to `CCCCCCCCCCCCCCCCCCNc1nc(NCCCCCCCCCCCCCCCCCC)nc(NCCCN2CCOCC2)n1` [Compound N18N18D8], for which the “Absolute DNA transfection efficiency” value with HEK293 cells [1] was 0.1%. For the same compound, the “Absolute mRNA transfection efficiency” value in the assay with HEK293 cells [2] is recorded as 0.0%.

As for `CCCCCCCCCCCCCCCCCCNc1nc(NCCCCCCCCCCCCCCCCCC)nc(NCCCN2CCN(C)CC2)n1` [Compound N18N18D9], in the assay with HEK293 cells [1], the “Absolute DNA transfection efficiency” value was 0.0%. Moreover, in the assay with HEK293 cells [2], the “Absolute mRNA transfection efficiency” value was found to be 0.0%.

On to `CCCCCCCCCCCCCCCCCCNc1nc(NCCCCCCCCCCCCCCCCCC)nc(NCC2CCN(C)CC2)n1` [Compound N18N18D10], for which, in the assay on HEK293 cells [1], the “Absolute DNA transfection efficiency” value was found to be 0.0%. Moreover, in the assay with HEK293 cells [2], the “Absolute mRNA transfection efficiency” value was 0.0%.

In the case of `CCCCCCCCCCCCCCSc1nc(NCCN(C)C)nc(SCCCCCCCC)n1` [Compound S8S14D1], in the assay on HEK293 cells [1], the “Absolute DNA transfection efficiency” value was 8.3%. Also, the “Absolute mRNA transfection efficiency” value in the assay with HEK293 cells [2] was 0.7%.

With `CCCCCCCCCCCCCCSc1nc(NCCN2CCOCC2)nc(SCCCCCCCC)n1` [Compound S8S14D2], the “Absolute DNA transfection efficiency” value in the assay with HEK293 cells [1] came to 18.5%. Also, the “Absolute mRNA transfection efficiency” value with HEK293 cells [2] came out at 0.4%.

`CCCCCCCCCCCCCCSc1nc(NCCN2CCCC2)nc(SCCCCCCCC)n1` [Compound S8S14D3]: the “Absolute DNA transfection efficiency” value in the assay on HEK293 cells [1] was found to be 13.9%. Moreover, the “Absolute mRNA transfection efficiency” value in the assay on HEK293 cells [2] was found to be 3.4%.

Turning to `CCCCCCCCCCCCCCSc1nc(NCCN2CCCCC2)nc(SCCCCCCCC)n1` [Compound S8S14D4], the “Absolute DNA transfection efficiency” value in the assay on HEK293 cells [1] stood at 9.3%. Besides, the “Absolute mRNA transfection efficiency” value with HEK293 cells [2] worked out at 3.1%.

With `CCCCCCCCCCCCCCSc1nc(NCCN2CCN(C)CC2)nc(SCCCCCCCC)n1` [Compound S8S14D5], the “Absolute DNA transfection efficiency” value in the assay on HEK293 cells [1] is 29.9%. In the assay with HEK293 cells [2], the “Absolute mRNA transfection efficiency” value stood at 52.7%.

Turning to `CCCCCCCCCCCCCCSc1nc(NCCCN(C)C)nc(SCCCCCCCC)n1` [Compound S8S14D6], the “Absolute DNA transfection efficiency” value in the assay on HEK293 cells [1] was 16.2%. Further, the “Absolute mRNA transfection efficiency” value with HEK293 cells [2] is recorded as 79.5%.

With `CCCCCCCCCCCCCCSc1nc(NCCN(CC)CC)nc(SCCCCCCCC)n1` [Compound S8S14D7], the “Absolute DNA transfection efficiency” value in the assay on HEK293 cells [1] is on record as 7.5%. For the same compound, the “Absolute mRNA transfection efficiency” value in the assay with HEK293 cells [2] came out at 1.3%.

`CCCCCCCCCCCCCCSc1nc(NCCCN2CCOCC2)nc(SCCCCCCCC)n1` [Compound S8S14D8]: the “Absolute DNA transfection efficiency” value in the assay on HEK293 cells [1] came to 17.1%. Besides, the “Absolute mRNA transfection efficiency” value in the assay on HEK293 cells [2] is 3.4%.

`CCCCCCCCCCCCCCSc1nc(NCCCN2CCN(C)CC2)nc(SCCCCCCCC)n1` [Compound S8S14D9]: the “Absolute DNA transfection efficiency” value in the assay on HEK293 cells [1] stood at 16.0%. The “Absolute mRNA transfection efficiency” value in the assay with HEK293 cells [2] is 13.5%.
